# Results as given in patent US20020058048A1, “TOPICAL CAPSAICIN PREPARATION” (priority 1998, published 2002).
# Several values for one entry are separate records, joined by “and”; a condition that tells them apart may be missing. Equal entries are not always repeated.
# What was measured:
# [1] = system: hind-limb of rats; experiment: Withdrawal latency to thermal stimuli (42° C. water bath) of hind-limb in rats during sensitization by capsaicin; format: in vivo, rat; conditions: 0.1% capsaicin solution; for Withdrawal latency time, One hour after appln.: 42° C. water bath; for Withdrawal latency time, Before appln.: baseline before application
# Experimental: 1. 0.1% capsaicin solutions containing varying amount of polyoxyethylene (60) hydrogenated castor oil were prepared by dissolving 0.1 g of capsaicin and 0, 3, 9 or 18g of the surfactant in 26.4 ml of ethanol and then diluting with distilled water q.s. to make a total volume of 100 ml.
# Each of 0.1% capsaicin solution thus prepared was applied to the hind-limb of rats. One hour after the application, the limb was placed in a water bath warmed at 42° C. and the length of time (in seconds) elapsed until when the rat withdrew the treated limb from the water bath was determined. […]
# [2] = system: cornea of rats; experiment: Eye-wiping reflex caused by capsaicin applied to the cornea (eye-wiping method of Jancso); format: in vivo, rat; conditions: for Number of wiping, Second: challenge with 0.1% capsaicin solution without surfactant 2 hours after pretreatment with 0.1% capsaicin
# Text: 2. The effect of polyoxyethylene (60) hydrogenated castor oil on the eye-wiping reflex caused by capsaicin and the desensitization to chemical stimuli was studied according to the eye-wiping method reported by Jancso N. et al., in “Direct evidence for neurogenic inflammation and its prevention by denervation and by pretreatment with capsaicin”, Br. J. Phamac. Chemother. 31: 138-151, 1967.
# When one drop of 0.1% capsaicin solution was applied to the cornea of rats, the animal immediately began to wipe the cornea with front paws and continued the wiping for about 1 minute.
# See, Table 2. […] See, Table 3.
# 4. The effect of various surfactants on the desensitization of sensory nerves by 0.1% capsaicin was evaluated using the procedure of Test 2.
# [3] = polyoxyethylene (60) hydrogenated castor oil 0%
# [4] = polyoxyethylene (60) hydrogenated castor oil 3%
# [5] = polyoxyethylene (60) hydrogenated castor oil 9%
# [6] = polyoxyethylene (60) hydrogenated castor oil 18%
smiles,measurement,setting,value
COc1cc(CNC(=O)CCCC/C=C/C(C)C)ccc1O [capsaicin],"Withdrawal latency time, One hour after appln.",[1]; [3],remarkably shortened and 2.45 ± 0.32 sec.
same,"Withdrawal latency time, Before appln.",[1]; [3],30 ± 0 s
same,"Withdrawal latency time, One hour after appln.",[1]; [4],slightly shortened and 20.29 ± 4.18 sec.
same,"Withdrawal latency time, Before appln.",[1]; [4],30 ± 0 s
same,"Withdrawal latency time, One hour after appln.",[1]; [5],not affected significantly and 30 ± 0 sec.
same,"Withdrawal latency time, Before appln.",[1]; [5],30 ± 0 s
same,"Withdrawal latency time, One hour after appln.",[1]; [6],not affected significantly and 27.28 ± 2.35 sec.
same,"Withdrawal latency time, Before appln.",[1]; [6],30 ± 0 s
same,"Number of wiping, Second",[2]; surfactant 0%,significantly reduced and 9.7 ± 1.6
same,"Number of wiping, Second",[2]; surfactant 3%,significantly reduced and 11.5 ± 0.9
same,"Number of wiping, Second",[2]; surfactant 9%,significantly reduced and 13 ± 0.7
same,"Number of wiping, Second",[2]; surfactant 18%,significantly reduced and 11.7 ± 0.6
same,Duration of wiping of the cornea with front paws,[2]; one drop applied to the cornea of rats,about 1 minute
same,"Number of wiping, First",[2]; pretreatment drop of 0.1% capsaicin solution with surfactant 0%,21.5 ± 1.6
same,"Number of wiping, First",[2]; pretreatment drop of 0.1% capsaicin solution with surfactant 3%,not virtually affected and 24 ± 2.1
same,"Number of wiping, First",[2]; pretreatment drop of 0.1% capsaicin solution with surfactant 9%,not virtually affected and 23.5 ± 1.1
same,"Number of wiping, First",[2]; pretreatment drop of 0.1% capsaicin solution with surfactant 18%,not virtually affected and 22 ± 1.4
